A short description of this assay: Binding to HIV1 Vpr by isothermal titration calorimetry. Further details: species or system Human immunodeficiency virus.

One may read the Kd as the equilibrium constant for the complex coming apart. High values mean weaker binding, low ones tighter binding. With `C[C@H](CC(N)=O)N(C[C@@H](CCCCN)N(C[C@@H](CCCCN)N(C[C@@H](Cc1ccc(O)cc1)NC(=O)Cc1ccc([N+](=O)[O-])cc1)C(=O)CCc1ccccc1)C(=O)CCc1ccccc1)C(=O)CCc1ccccc1`, binding was characterised by a dissociation constant (Kd) of 25 µM.

(Values after ChEMBL document CHEMBL1268972, “Solid-phase synthesis and screening of N-acylated polyamine (NAPA) combinatorial libraries for protein binding” (Bioorg Med Chem Lett, 2010).)
